Source: article PMC11510499, “Mechanism-Based Allylic Carbasugar Chlorides That Form Covalent Intermediates with α- and β-Galactosidases” (Molecules, 2024)
“Also recorded” adds a separate entry of the source.

What was measured:
Assay type in all cases: biochemical
[1] = biological target: T1, Human α-galactosidase (GalA) (Homo sapiens, UniProt P06280); experiment: Covalent inhibition (inactivation) kinetics of Human α-galactosidase (GalA); details: for covalent inhibition observed: at 5 mM inhibitor, NIO = No inhibition observed, pH 4.6, 37 °C
T1 construct: purchased Biotechne
T1 sequence (P06280 32-429): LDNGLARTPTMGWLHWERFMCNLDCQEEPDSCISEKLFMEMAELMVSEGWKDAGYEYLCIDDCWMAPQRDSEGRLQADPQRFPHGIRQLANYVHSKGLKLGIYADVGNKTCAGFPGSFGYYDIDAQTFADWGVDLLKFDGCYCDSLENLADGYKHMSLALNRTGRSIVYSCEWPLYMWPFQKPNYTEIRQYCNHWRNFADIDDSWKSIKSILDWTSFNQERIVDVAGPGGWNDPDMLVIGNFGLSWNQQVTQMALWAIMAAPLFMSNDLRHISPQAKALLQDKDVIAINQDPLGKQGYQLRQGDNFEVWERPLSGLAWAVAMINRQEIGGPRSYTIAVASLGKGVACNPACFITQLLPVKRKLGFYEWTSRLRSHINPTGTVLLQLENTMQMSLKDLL
Method: (§1) Recombinant Human α-galactosidase (GalA) was purchased from Biotechne, and Aspergillus oryzae β-galactosidase was purchased from Sigma. We calculated the various rate constants for covalent inhibition of these two glycosidases by compounds 1 to 4 by use of either a classical jump dilution assay or a continuous assay protocol.
(§2) First, we incubated the enzyme using at least five different inhibitor concentrations in the appropriate buffer. We then ‘jump-diluted’ the inactivation mixture by adding 4 µL aliquots of the inhibition mixture to a pre-equilibrated 196 µL buffered solution containing substrate (see assay conditions section). We monitored the enzymatic activity using either UV-vis (Cary300, Agilent Technologies, Santa Clara, CA, United States) or fluorescence (Cary Eclipse). All rate constants for inhibition (kobs) were calculated using a standard nonlinear least squares fit of enzyme activity (%) versus time data to a first-order equation. We then used a standard Michaelis–Menten expression to evaluated kinact and kinact/Ki for covalent inhibition using a standard nonlinear least squares fitting routine. However, in cases where we noted insufficient saturation of inhibitor, we used a standard linear fit of the kobs versus covalent inhibitor concentration to obtain the inhibition rate constant kinact/Ki.
(§3) Second, we also used a continuous assay protocol in which we added the enzyme to a pre-equilibrated buffered mixture containing substrate and inhibitor. We monitored the reaction continuously until we noted that the rate of fluorophore (or chromophore) became linear following the initial first-order process. We repeated these experiments for at least five other inhibitor concentrations. We calculated the apparent rate constant (kapp) at every inhibitor concentration by fitting the progress curves to equation 1 (for UV-Vis or a similar equation for fluorescence data), where Vi is the initial velocity at t = 0 and Vf is the velocity at t = ∞ [31]. (1) Abs=νft+νi−νf/kapp1−e^−kappt
(§4) The kapp values versus inhibitor concentrations were then fit to a modified Michaelis–Menten expression for competitive inhibition (equation 2), which gives the second-order inhibition parameter kinact/Ki only. (2) kapp=kreact+kinact/KiI/1+S/Km
(§5) The release of 4-nitrophenol was monitored at 400 nm, while the release of 4-methylumbelliferone was monitored at 365 nm excitation and 445 emission wavelengths. All rate constants were determined by fitting experimental data on the computer program GraphPad Prism 10.0 (GraphPad Software, Boston, MA, USA).

[2] = biological target: T2, A. oryzae GH35 β-galactosidase (LacA) (Aspergillus oryzae, UniProt Q2UCU3); experiment: Covalent inhibition (inactivation) kinetics of A. oryzae β-galactosidase (LacA); details: for kinact/Ki: 50 mM sodium acetate buffer
T2 construct: purchased Sigma
T2 sequence (Q2UCU3 19-1005): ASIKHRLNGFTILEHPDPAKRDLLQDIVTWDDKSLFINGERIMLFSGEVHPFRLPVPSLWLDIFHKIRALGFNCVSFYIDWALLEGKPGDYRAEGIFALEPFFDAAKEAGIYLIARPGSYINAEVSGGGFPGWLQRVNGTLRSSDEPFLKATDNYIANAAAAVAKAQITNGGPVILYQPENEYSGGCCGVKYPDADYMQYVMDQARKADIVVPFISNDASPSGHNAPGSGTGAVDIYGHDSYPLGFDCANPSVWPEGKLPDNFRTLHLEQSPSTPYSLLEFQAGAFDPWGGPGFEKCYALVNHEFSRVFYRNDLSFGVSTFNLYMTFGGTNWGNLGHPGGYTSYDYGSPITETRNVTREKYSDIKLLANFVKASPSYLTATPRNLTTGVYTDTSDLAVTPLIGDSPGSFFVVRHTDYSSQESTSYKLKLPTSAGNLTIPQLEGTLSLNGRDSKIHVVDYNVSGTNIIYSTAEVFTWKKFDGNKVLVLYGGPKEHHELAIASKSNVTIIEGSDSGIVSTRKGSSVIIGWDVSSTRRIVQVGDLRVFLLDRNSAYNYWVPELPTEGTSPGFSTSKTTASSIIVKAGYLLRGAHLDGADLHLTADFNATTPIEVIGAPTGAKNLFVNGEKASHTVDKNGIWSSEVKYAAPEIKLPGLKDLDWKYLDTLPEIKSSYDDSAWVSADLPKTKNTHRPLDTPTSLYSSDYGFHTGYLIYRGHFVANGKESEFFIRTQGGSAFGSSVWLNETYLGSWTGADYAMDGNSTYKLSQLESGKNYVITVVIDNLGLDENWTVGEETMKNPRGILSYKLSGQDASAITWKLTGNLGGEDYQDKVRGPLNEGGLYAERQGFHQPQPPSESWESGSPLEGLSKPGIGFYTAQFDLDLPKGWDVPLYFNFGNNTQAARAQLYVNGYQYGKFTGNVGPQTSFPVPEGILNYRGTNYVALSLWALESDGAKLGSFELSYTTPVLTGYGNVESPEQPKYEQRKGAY
Method: as §1, §2, §3, §4, §5

[3] = biological target: T2, A. oryzae GH35 β-galactosidase (LacA); experiment: Reactivation kinetics of covalently inhibited A. oryzae β-galactosidase (LacA); details: 50 mM sodium acetate buffer, pH 4.5, 0.1% BSA, 37 °C; for t1/2: half-life of covalent intermediate
Method: (§6) In summary, all inhibitors that covalently label either Human α-galactosidase or Aspergillus oryzae β-galactosidase display linear second-order kinetics where the slopes of the graphs give kinact/Ki (Table 1 and Table 2). That is, no saturation binding is noted even up to inhibitor concentrations of 8 mM, i.e., Ki » 8 mM. […] As a result, reactivation kinetics were monitored by diluting a quantity of inhibited enzyme into a buffered solution containing substrate. Shown in Figure 3 are the measured gradients (time intervals of 100 s) from the absorbance versus time plot of the reactivation for GH35 A. oryzae β-galactosidase with 1–3.
(§7) We monitored a concentrated solution of enzyme and inhibitor at 37 °C until the measured enzyme activity dropped to under 5% of that initially measured. We then added a small volume (typically 0.5 µL) to a pre-equilibrated reactivation buffer containing substrate (200 µL). We then continuously monitored the release of either the chromophore or the fluorophore. We then calculated signal versus time gradient slope at uniform time intervals to give reaction rates. We fit these computed values to a standard first-order rate equation (Prism 10.0) to give us the first order reactivation rate constant (kreact).

[4] = biological target: T1, Human α-galactosidase (GalA); experiment: Reactivation kinetics of covalently inhibited Human α-galactosidase (GalA); details: 50 mM sodium citrate buffer, pH 4.6, 50 mM NaCl, 0.1% BSA, 37 °C; for t1/2: half-life of covalent intermediate
Method: as §6, §7

Row | SMILES | covalent inhibition observed [1] | kinact/KI ([2]; pH 4.5, 50 mM sodium acetate buffer, pH 4.5, 0.1% BSA, 37 °C) [M⁻¹ s⁻¹] | kreact [3] | t1/2 [3] [min] | kinact/KI ([1]; pH 4.6, 50 mM sodium citrate buffer, pH 4.6, 50 mM NaCl, 0.1% BSA, 37 °C) [M⁻¹ s⁻¹] | kreact [4] | t1/2 [4] [min] | kinact/Ki ([2]; pH 4.5, 0.1% BSA, 37 °C) [M⁻¹ s⁻¹] | kinact/Ki ([1]; 50 mM sodium citrate buffer, pH 4.6, 50 mM NaCl, 0.1% BSA, 37 °C) [M⁻¹ s⁻¹] | covalent inhibition observed ([2]; at 1 mM inhibitor, NIO = No inhibition observed, pH 4.5, 37 °C)
1 | O[C@@H]1[C@@H](O)[C@@H](O)C=C[C@H]1Cl [Compound 1, 5,5a-didehydro-5a-carba-β-L-arabino-hexopyranosyl chloride] | no measurable covalent inhibition; also recorded: NIO ^a at 5 mM | 17 ± 0.5 | (2.5 ± 0.1) × 10^−3 s^−1 | 4.6 ± 0.2 | – | – | – | – | – | –
2 | OC1C=CC(Cl)C(O)C1O (stereo not drawn) [Compound 2] | – | – | (2.6 ± 0.2) × 10^−3 s^−1 | 4.5 ± 0.3 | 0.25 ± 0.004 | (5.1 ± 0.2) × 10^−4 s^−1 | 22.5 ± 0.7 | 47 ± 2 | – | –
3 | OC1C=CC(Cl)C(O)C1O (stereo not drawn) [Compound 3] | – | – | (2.6 ± 0.2) × 10^−3 s^−1 | 4.5 ± 0.3 | – | (4.9 ± 0.2) × 10^−4 s^−1 | 23.4 ± 0.9 | 2.7 ± 0.04 | 0.18 ± 0.01 | –
4 | O[C@@H]1[C@H](O)[C@@H](O)C=C[C@H]1Cl [Compound 4] | no measurable covalent inhibition; also recorded: NIO ^a at 5 mM | – | – | – | – | – | – | – | – | no activity; also recorded: NIO ^a at 1 mM
